What was measured:
Format in all cases: biochemical
[1] = Lipoperoxidation (liposomes + AAPH, xylenol orange); conditions: for protection against lipoperoxidation: active ingredient alone, 100 μg/ml (0.01%), 3 hours of reaction
Source text: The methodologies selected for planning and carrying out the tests for the antioxidant efficacy of the complex of the present invention aimed at reproducing the protective effect of membranes (lipids), DNA and proteins, and were fast screening methodologies, such as: • DPPH: the test is based on the reduction reaction of the diphenyl picryl hydrazyl (DPPH) free radical in ethanolic medium, with the raw materials or substances to be analyzed, wherein the DPPH radical is reduced by said substances, altering the tone and enabling the antioxidant protection to be measured. This is a simple assay, commonly used for screening substances, since it measures one of the main mechanisms of antioxidant action—proton donation for stabilization of the DPPH radical. • Lipoperoxidation: in this test, phosphatidylcholine liposomes, which structure resembles the cell membrane since phosphatidylcholine is one of the lipid components of cell membranes, are incubated with the AAPH radical, which is capable of promoting the oxidation of these membranes, forming lipid hydroperoxides. These hydroperoxides promote the oxidation of Fe^2+ to Fe^3+, which reacts with xylenol orange, forming a yellowish compound. The active ingredients incubated with the liposomes decrease the membrane oxidation, consequently decreasing the reaction with xylenol orange and the formation of color. This test provides a result for the % protection against lipoperoxidation, and is closer to the physiological situation, since it mimics the attack to cell membranes. • Protein Oxidation: this experiment uses BSA (bovine serum albumine) as a substrate and a hydroxyl radical generating system (Fenton reaction: H2O2+ iron), which can generate hydroperoxides in the presence of the protein, due to the oxidation of the amino acid side chain. These hydroperoxides promote the oxidation of Fe2+ to Fe3+, which reacts with xylenol orange, forming a yellowish compound. […]

[2] = DPPH free radical neutralization; conditions: amount required to neutralize 50% of DPPH radicals
Source text: This methodology is used to assess the IC-50 value, i.e., the amount of active ingredient required to neutralize 50% of the radicals formed in the reaction medium.
This assay is used to assess the active ingredient's ability to decrease the formation of free radicals. A specific radical (DPPH) produces a purple coloring in ethanolic solution. Antioxidant active ingredients capable of donating protons (H^+) decrease the formation of radicals, consequently decreasing the purple coloring.

[3] = ORAC hydrophilic and lipophylic method; conditions: value printed for comparison with the samples
Protocol: The system comprises a generating substance of free radical, the AAPH (2,2′-azobis (2-amidinopropane)dihydrochloride) and a fluorescent marker, fluorescein. The antioxidant substance presence in the reaction medium inhibits the decline of the induced fluorescence by the free radical.
The final value is calculated by the regression equation between the sample concentration and the area under the decline curve of fluorescence (AUC). Being expressed the result in micromoles equivalent of Trolox®/g of the sample. AUC=1+f1/f0+f2/f0++f3/f0+ . . . +fn/f0 • f0: initial fluorescence t=0 minutes • fn: fluorescence in each sample in t=n minutes
Hexane (1 mg/mL) was added in the individual samples, the samples were agitated during 3 minutes in vortex and centrifuged during two minutes in 700 g. The supernatant was removed, evaporated under nitrogen flow and analyzed as lipophylic portion. The soil body was analyzed as hydrophilic fraction.
The latter was solubilized in acetone:water (50% v/v), mixed in the ratio indicated for each one of the mixtures and appropriately diluted in 75 nM phosphate buffer pH 7.0. […] The reading was made each minute for one hour with wave length of excitement 485/20 nm and emission 528/20 nm (reading of plates—Multi Detection microplate reader SynergyBIOTEK). […]

Question: Which protection against lipoperoxidation [1] does the source give for `CC(C)=CCC/C(C)=C/C=C/C(C)=C/C=C/C(C)=C/C=C/C=C(C)/C=C/C=C(C)/C=C/C=C(\C)CCC=C(C)C` [Lycopene] here?
Answer: Its protection against lipoperoxidation is 25.30%.

Question: And the “IC-50 (mg/ml)” value [2]?
Answer: Its value is 0.208 mg/mL.

Question: What about the “IC-50 (μg/ml)” value [2] of the same molecule?
Answer: The value was 208 µg/mL.

Question: Which protection against lipoperoxidation [1] does the source give for `Cc1c(C)c2c(c(C)c1O)CC[C@@](C)(CCC[C@H](C)CCC[C@H](C)CCCC(C)C)O2` [Tocopherol, alpha-tocopherol] here?
Answer: Its protection against lipoperoxidation is 95.53%.

Question: What about the “concentration of the active ingredient in isolation required for protection similar to the mixture, relative to its concentration in the mixture” value ([1]; lipoperoxidation, between 60 and 70% protection, mixture 10+10+10 μg/ml) of the same molecule?
Answer: Its value is “at least 5 times higher”.

Question: And the “IC-50 (mg/ml)” value [2]?
Answer: Its value is 0.019 mg/mL.

Question: What about the “IC-50 (μg/ml)” value [2] of the same molecule?
Answer: The value was 19 µg/mL.

Question: Which “antioxidant activity of comparator” value [3] does the source give for `Cc1c(C)c2c(c(C)c1O)CCC(C)(C(=O)O)O2` (centres unmarked) [Trolox®] here?
Answer: The value was 400 µmol/g.
